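Cultured in 96-well plates, cells were exposed to test compound for 48 hours across five concentrations. The concentration for full growth arrest is given as TGI.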
Legend:
Test in all cases: NCI anticancer screen, dose series, 48 h
SNB-75 CNS = test system: SNB-75 CNS
RXF 393 renal = test system: RXF 393 renal
HOP-62 NSCLC = test system: HOP-62 NSCLC
M14 melanoma = test system: M14 melanoma
SK-MEL-5 melanoma = test system: SK-MEL-5 melanoma
U251 CNS = test system: U251 CNS
SF-539 CNS = test system: SF-539 CNS
RPMI-8226 leukemia = test system: RPMI-8226 leukemia
HCT-15 colon = test system: HCT-15 colon
SNB-19 CNS = test system: SNB-19 CNS
SN12C renal = test system: SN12C renal
CCRF-CEM leukemia = test system: CCRF-CEM leukemia
BT-549 breast = test system: BT-549 breast
CAKI-1 renal = test system: CAKI-1 renal
HCC-2998 colon = test system: HCC-2998 colon
NCI-H226 lung = test system: NCI-H226 lung
A549 NSCLC = test system: A549 NSCLC
MDA-N = test system: MDA-N
SW-620 colon = test system: SW-620 colon
NCI-H522 lung = test system: NCI-H522 lung
NCI-H460 lung = test system: NCI-H460 lung
SF-295 CNS = test system: SF-295 CNS
OVCAR-4 ovarian = test system: OVCAR-4 ovarian
MALME-3M melanoma = test system: MALME-3M melanoma
MCF7 breast = test system: MCF7 breast
SF-268 CNS = test system: SF-268 CNS
HS 578T breast = test system: HS 578T breast
DU-145 prostate = test system: DU-145 prostate
MDA-MB-435 = test system: MDA-MB-435
UACC-257 melanoma = test system: UACC-257 melanoma
SK-OV-3 ovarian = test system: SK-OV-3 ovarian
COLO 205 colon = test system: COLO 205 colon
EKVX NSCLC = test system: EKVX NSCLC
HL-60(TB) leukemia = test system: HL-60(TB) leukemia
HOP-92 NSCLC = test system: HOP-92 NSCLC
PC-3 prostate = test system: PC-3 prostate
KM12 colon = test system: KM12 colon
TK-10 renal = test system: TK-10 renal
A498 renal = test system: A498 renal
ACHN renal = test system: ACHN renal
SK-MEL-2 melanoma = test system: SK-MEL-2 melanoma
SK-MEL-28 melanoma = test system: SK-MEL-28 melanoma
OVCAR-5 ovarian = test system: OVCAR-5 ovarian
LOX IMVI melanoma = test system: LOX IMVI melanoma
IGROV1 ovarian = test system: IGROV1 ovarian
HT29 colon = test system: HT29 colon
UO-31 renal = test system: UO-31 renal
K-562 leukemia = test system: K-562 leukemia
OVCAR-3 ovarian = test system: OVCAR-3 ovarian
HCT-116 colon = test system: HCT-116 colon
MDA-MB-231 breast = test system: MDA-MB-231 breast
NCI/ADR-RES ovarian = test system: NCI/ADR-RES ovarian
UACC-62 melanoma = test system: UACC-62 melanoma
NCI-H23 lung = test system: NCI-H23 lung
OVCAR-8 ovarian = test system: OVCAR-8 ovarian
MOLT-4 leukemia = test system: MOLT-4 leukemia
786-0 renal = test system: 786-0 renal
SR leukemia = test system: SR leukemia

Measured: TGI

COC(=O)C1=CSC2(S1)C(C(=O)OC)=CSc1c2ssc1=O (centres undefined)
5.1 µM: SN12C renal
8.47 µM: OVCAR-8 ovarian
3.31 µM: HCT-15 colon
3.25 µM: UO-31 renal
3.61 µM: ACHN renal
5.23 µM: SK-MEL-28 melanoma
29.7 µM: SK-OV-3 ovarian
44.9 µM: NCI-H226 lung
4.16 µM: UACC-62 melanoma
12.5 µM: A498 renal
> 23 µM: K-562 leukemia
4.92 µM: MDA-N
4 µM: UACC-257 melanoma
4.27 µM: HOP-92 NSCLC
28.3 µM: A549 NSCLC
8.89 µM: SF-268 CNS
12.9 µM: BT-549 breast
2.96 µM: 786-0 renal
10.7 µM: CAKI-1 renal
5.12 µM: NCI-H23 lung
6.13 µM: TK-10 renal
40.5 µM: SF-295 CNS
6.62 µM: SK-MEL-5 melanoma
3.62 µM: RXF 393 renal
3.17 µM: SF-539 CNS
4.34 µM: MDA-MB-435
2.9 µM: IGROV1 ovarian
6.03 µM: PC-3 prostate
6.18 µM: MALME-3M melanoma
12.3 µM: HS 578T breast
2.47 µM: CCRF-CEM leukemia
14.5 µM: EKVX NSCLC
3.81 µM: OVCAR-4 ovarian
3.71 µM: HT29 colon
8.16 µM: SNB-75 CNS
4.24 µM: RPMI-8226 leukemia
3.16 µM: HCT-116 colon
3.02 µM: U251 CNS
3.45 µM: HL-60(TB) leukemia
17 µM: HOP-62 NSCLC
3.3 µM: DU-145 prostate
8.35 µM: NCI/ADR-RES ovarian
16.1 µM: SNB-19 CNS
4.13 µM: MDA-MB-231 breast
3.55 µM: OVCAR-3 ovarian
2.89 µM: MCF7 breast
6.65 µM: M14 melanoma
3.14 µM: NCI-H522 lung
8.82 µM: HCC-2998 colon
12.8 µM: KM12 colon
3.35 µM: LOX IMVI melanoma
5.92 µM: SK-MEL-2 melanoma
> 19.8 µM: MOLT-4 leukemia
2.93 µM: SW-620 colon
21.9 µM: OVCAR-5 ovarian
4.03 µM: COLO 205 colon
24.5 µM: NCI-H460 lung

O=C(O)C1CCCCC1C(=O)Nn1cnnc1 (centres undefined)
> 100 µM: SNB-75 CNS | RXF 393 renal | HOP-62 NSCLC | M14 melanoma | SK-MEL-5 melanoma | U251 CNS | SF-539 CNS | RPMI-8226 leukemia | HCT-15 colon | SNB-19 CNS | SN12C renal | CCRF-CEM leukemia | BT-549 breast | HCC-2998 colon | A549 NSCLC | MDA-N | SW-620 colon | NCI-H522 lung | SF-295 CNS | OVCAR-4 ovarian | MCF7 breast | SF-268 CNS | DU-145 prostate | MDA-MB-435 | UACC-257 melanoma | SK-OV-3 ovarian | COLO 205 colon | EKVX NSCLC | HOP-92 NSCLC | SR leukemia | PC-3 prostate | KM12 colon | TK-10 renal | ACHN renal | SK-MEL-2 melanoma | SK-MEL-28 melanoma | OVCAR-5 ovarian | LOX IMVI melanoma | IGROV1 ovarian | HT29 colon | UO-31 renal | K-562 leukemia | OVCAR-3 ovarian | HCT-116 colon | MDA-MB-231 breast | NCI/ADR-RES ovarian | UACC-62 melanoma | NCI-H23 lung | OVCAR-8 ovarian | MOLT-4 leukemia | 786-0 renal

CC(=O)O/C=C1/C[C@H]2[C@@H]3CCC4CC(C(C)=O)CC[C@]4(C)[C@H]3CC[C@]2(C)C1=O (some centres undefined)
93.3 µM: KM12 colon
97.3 µM: OVCAR-3 ovarian
> 100 µM: RXF 393 renal | HOP-62 NSCLC | SK-MEL-5 melanoma | U251 CNS | HCT-15 colon | SNB-19 CNS | SN12C renal | CCRF-CEM leukemia | BT-549 breast | CAKI-1 renal | HCC-2998 colon | NCI-H226 lung | MDA-N | SW-620 colon | NCI-H522 lung | NCI-H460 lung | SF-295 CNS | OVCAR-4 ovarian | MALME-3M melanoma | MCF7 breast | SF-268 CNS | DU-145 prostate | MDA-MB-435 | UACC-257 melanoma | SK-OV-3 ovarian | EKVX NSCLC | HOP-92 NSCLC | SR leukemia | PC-3 prostate | TK-10 renal | A498 renal | ACHN renal | SK-MEL-2 melanoma | SK-MEL-28 melanoma | OVCAR-5 ovarian | LOX IMVI melanoma | IGROV1 ovarian | HT29 colon | UO-31 renal | K-562 leukemia | HCT-116 colon | MDA-MB-231 breast | UACC-62 melanoma | NCI-H23 lung | MOLT-4 leukemia | 786-0 renal
37.2 µM: HL-60(TB) leukemia

O=S(=O)(c1ccccc1)C(c1ccc2ccccc2n1)S(=O)(=O)c1ccccc1
> 100 µM: SNB-75 CNS | RXF 393 renal | HOP-62 NSCLC | SK-MEL-5 melanoma | U251 CNS | SF-539 CNS | RPMI-8226 leukemia | HCT-15 colon | SNB-19 CNS | SN12C renal | BT-549 breast | CAKI-1 renal | HCC-2998 colon | NCI-H226 lung | A549 NSCLC | MDA-N | SW-620 colon | NCI-H522 lung | NCI-H460 lung | SF-295 CNS | OVCAR-4 ovarian | MALME-3M melanoma | MCF7 breast | SF-268 CNS | HS 578T breast | DU-145 prostate | UACC-257 melanoma | COLO 205 colon | EKVX NSCLC | HL-60(TB) leukemia | HOP-92 NSCLC | SR leukemia | PC-3 prostate | KM12 colon | TK-10 renal | A498 renal | ACHN renal | SK-MEL-28 melanoma | OVCAR-5 ovarian | LOX IMVI melanoma | IGROV1 ovarian | HT29 colon | UO-31 renal | K-562 leukemia | OVCAR-3 ovarian | HCT-116 colon | MDA-MB-231 breast | NCI/ADR-RES ovarian | NCI-H23 lung | OVCAR-8 ovarian | MOLT-4 leukemia | 786-0 renal

Reference: PubChem BioAssay (NCI)
